Laboratory results reported in patent publication US20230393140A1, “BINDING ASSAYS INVOLVING A PLURALITY OF SYNTHETIC COMPOUNDS, TARGETS, AND COUNTER TARGETS” (SRI International, priority 2020, published 2023).
Read-outs that look alike come from different tables or passages of the source. Marks after values point to notes of the source that are not given here. Numbered stars: 1 amine (or outer) side, 2 acyl side, 3 side chain; on linkers, the order of the positions; unused ones are H or OH. Square brackets hold non-standard residues; d marks the D form. Peptide text beside a SMILES is read from it. * marks the point of attachment. 5FAM = O=C1OC2(c3ccc(O)cc3Oc3cc(O)ccc32)c2ccc(C(=O)*)cc21; NHCH2C6H4(4-CH2CONH2) = NC(=O)Cc1ccc(CN*)cc1; X1 = O=C(Cc1ccc(CN[*:1])cc1)[*:2]

How the values were obtained:
K-Ras = biological target: T1, K-Ras (Homo sapiens, UniProt P01116, G12V); experiment: MST binding affinity of resynthesized NNP hits to K-Ras
T1 construct: purchased Cytoskeleton Inc. CS-RS04
Outline: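 K-Ras G12V was GTP-loaded (EDTA exchange, 750 μM GTP, 2 h at 30° C, then MgCl2) and labeled with maleimide-647 dye. MST was run at room temperature in 20 mM HEPES pH 7.4, 150 mM NaCl, 10 mM MgCl2, 0.05% Tween-20, 1 mM DTT. Incubations lasted 15, 30 and 45 min; triplicate data fitted for affinity.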

cRaf/K-Ras (G12V) PPI = biological target: T2, cRaf/K-Ras (G12V) PPI (Homo sapiens, UniProt P01116, G12V); experiment: K-Ras-cRaf HTRF-based PPI profiling; assay type: biochemical; conditions: for blank corrected HTRF: raw data, compounds without fluorescein;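 as to blank corrected HTRF: background is the signal of wells with all components except cRaf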
T2 construct: b-Kras G12V (GppNHp) (aa 2-169); biotin (b-
Protocol: In some experimental embodiments, a buffer was added to the assay wells which included […] HEPES pH 7.4, 150 mM NaCl, 5 mM MgCl2, 1 mM DTT, 0.005% NP40, and 1% DMSO. 5 uL of 3×K-Ras protein was then added to the assay wells, followed by the synthetic compounds which were added using acoustic technology (ECHO, Labcyte) followed by thirty minutes incubation at room temperature. Afterwards, 5 uL of 3×cRaf protein was added to the assay wells and 5 uL of detection mix was then added to the assay wells after 30 minutes. The detection mix included Mab anti-GST-Tb cryptate (Cisbio 61GSTTLB) and streptavidin-XL665 (Ex/Em=(337/665; 620) in PHERAstar (BMG Labtech)). HTRF signal was measured […] later.
The data includes raw data (signal-background without cRaf protein but with all other component), % binding (relative to DMSO controls), and curve fits. Curve fits were performed when the activities at the highest concentration of the synthetic compounds were less than 65%. Tables 18A-18B below includes the raw data (e.g., blank corrected HTRF) and Tables 19A-19B includes the % binding.

biotinylated GST = experiment: Interference check with biotinylated GST and detection mix
Description: Table 20 below provides an interference check on the synthetic compounds using biotinylated GST, which was used with the detection mix to check for compound effect on fluorescence.

TNFα = TNFα (Homo sapiens, UniProt P01375); experiment: MST binding affinity of resynthesized NNP hits to TNFα; design: purchased R&D Systems, Inc. 210-TA/CF; conditions: read-out: KD (nM) [95% conf. int], NNP2 library hit, target TNFα, one-site binding model
Protocol: Hit binding affinity to various targets were determined using Microscale Thermophoresis (MST). MST experiments were performed on a Monolith NT.115pico (NanoTemper Technologies GmbH, Munich, Germany). Measurements were performed at room temperature, in triplicate with incubation periods of 15, 30 and 45 minutes. […] Targets were labeled using Nanotemper Monolith 2nd Generation Protein Labeling Kits. RED-MALEIMIDE (Maleimide-647-dye) labeling kit was used for K-Ras and RED-NHS (NHS-647-dye) labeling kit was used for IL-6, IL-6R, TNFα and ASGPR. The buffer for the ASGPR contained 20 mM HEPES pH 7.4, 150 mM NaCl, 10 mM MgCl2, 2 mM CaCl2, 0.05% Pluronic F-127, and 1 mM DTT; for IL-6 contained 20 mM HEPES pH 7.4, 150 mM KCl, 10 mM MgCl2, and 0.1% Pluronic F-127; for the soluble IL-6 receptor 20 mM HEPES pH 7.4, 150 mM NaCl, 10 mM MgCl2, and 0.05% Tween-20; for K-Ras 20 mM HEPES pH 7.4, 150 mM NaCl, 10 mM MgCl2, 0.05% Tween-20 and 1 mM DTT; for TNFα 10 mM HEPES pH 7.4, 150 mM NaCl, 10 mM MgCl2, 0.05% Polysorbate-20. Triplicate data was analyzed using MO.AffinityAnalysis software (NanoTemper Technologies GmbH).

TNFα, sequence (P01375 77-233 limits assumed): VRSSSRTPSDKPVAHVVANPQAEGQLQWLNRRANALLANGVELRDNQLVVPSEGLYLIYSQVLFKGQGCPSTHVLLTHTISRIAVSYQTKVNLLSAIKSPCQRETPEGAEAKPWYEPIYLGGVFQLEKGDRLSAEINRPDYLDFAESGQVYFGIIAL

Structure (SMILES): CC(C)C[C@H](NC(=O)[C@@H](CCC(=O)O)NC(=O)[C@H]1CCCN1C(=O)[C@@H](Cc1ccccc1)NC(=O)[C@@H](CO)NC(=O)c1ccc2c(c1)C(=O)OC21c2ccc(O)cc2Oc2cc(O)ccc21)C(=O)NCc1ccc(CC(=O)NCC(=O)N[C@@H](C(=O)N2CCC[C@@H]2C(=O)N[C@H](CCCNC(=N)N)C(=O)N[C@@H](C)C(=O)NCc2ccc(CC(=O)N3CCC[C@@H]3C(=O)N[C@H](CO)C(=O)N[C@H](CCC(=O)O)C(=O)N[C@H](CCCNC(=N)N)C(=O)NCC(=O)NCc3ccc(CC(=O)N4CCC[C@@H]4C(=O)N[C@H](CCCCN)C(=O)N[C@H](Cc4ccc(O)cc4)C(=O)N[C@H](CCCNC(=N)N)C(=O)N[C@@H](Cc4ccccc4)C(=O)NCc4ccc(CC(=O)N[C@H](CCCNC(=N)N)C(=O)N[C@H](Cc5ccccc5)C(=O)N5CCC[C@@H]5C(=O)N[C@@H](C(=O)NCC(=O)NCc5ccc(CC(=O)NCC(=O)N[C@H](Cc6c[nH]c7ccccc67)C(=O)N[C@H](Cc6c[nH]cn6)C(=O)N[C@H](CCCNC(=N)N)C(=O)N[C@@H](C)C(=O)NCc6ccc(CC(N)=O)cc6)cc5)C(C)C)cc4)cc3)cc2)C(C)C)cc1 [KRAS-1-9] (5FAM-[dS][dF][dP][dE]L[X1]G[dV][dP][dR]A[X1][dP][dS][dE][dR]G[X1][dP][dK][dY][dR]F[X1][dR][dF][dP][dV]G[X1]G[dW][dH][dR]A-{NHCH2C6H4(4-CH2CONH2)})
- Kd (K-Ras; K-Ras, compound with fluorescein on N-term, read-out: KD[nM] in MST (with fluorescein on N-term)): 32 nM
- Kd (K-Ras; read-out: KD (nM) [95% conf. int], MST, NNP1 library hit, target K-Ras, one-site binding model): 32 nM
- HillSlope (cRaf/K-Ras (G12V) PPI; curve fit of % binding, K-Ras G12V 30 nM, GST-cRaf 10 nM): −0.9902
- blank corrected HTRF (cRaf/K-Ras (G12V) PPI; conc. 1.00E−05): 4707
- blank corrected HTRF (cRaf/K-Ras (G12V) PPI; conc. 1.11E−06): 7790
- blank corrected HTRF (cRaf/K-Ras (G12V) PPI; conc. 1.37E−08): 12329
- blank corrected HTRF (cRaf/K-Ras (G12V) PPI; conc. 3.33E−06): 3269
- blank corrected HTRF (cRaf/K-Ras (G12V) PPI; conc. 3.70E−07): 12513
- blank corrected HTRF (cRaf/K-Ras (G12V) PPI; conc. 4.12E−08): 14333
- blank corrected HTRF (cRaf/K-Ras (G12V) PPI; conc. 4.57E−09): 13688
- % signal compared to DMSO (biotinylated GST; assay conc. 0.000508053 μM): 99.72%
- % signal compared to DMSO (biotinylated GST; assay conc. 0.001524158 μM): 102.8%
- % signal compared to DMSO (biotinylated GST; assay conc. 0.004572474 μM): 100.2%
- % signal compared to DMSO (biotinylated GST; assay conc. 0.013717421 μM): 101.4%
- % signal compared to DMSO (biotinylated GST; assay conc. 0.041152263 μM): 102.8%
- % signal compared to DMSO (biotinylated GST; assay conc. 0.12345679 μM): 101.5%
- % signal compared to DMSO (biotinylated GST; assay conc. 0.37037037 μM): 99.8%
- % signal compared to DMSO (biotinylated GST; assay conc. 1.111111111 μM): 92.41%
- % signal compared to DMSO (biotinylated GST; assay conc. 3.333333333 μM): 69.59%
- % signal compared to DMSO (biotinylated GST; assay conc. 10 μM): 53.69* %

Structure (SMILES): CC(C)C[C@H](NC(=O)[C@@H](CCCCN)NC(=O)[C@@H](Cc1ccccc1)NC(=O)Cc1ccc(CNC(=O)[C@H](CC(C)C)NC(=O)[C@@H](CCCCN)NC(=O)[C@@H](CC(C)C)NC(=O)Cc2ccc(CNC(=O)[C@H](Cc3ccccc3)NC(=O)[C@@H](C)NC(=O)[C@@H](C)NC(=O)Cc3ccc(CNC(=O)[C@H](CC(C)C)NC(=O)[C@H](NC(=O)[C@@H](CCCCN)NC(=O)c4ccc5c(c4)C(=O)OC54c5ccc(O)cc5Oc5cc(O)ccc54)C(C)C)cc3)cc2)cc1)C(=O)NCc1ccc(CC(=O)N[C@H](Cc2c[nH]c3ccccc23)C(=O)N[C@H](CCCNC(=N)N)C(=O)N[C@H](C(=O)NCc2ccc(CC(=O)N[C@H](CO)C(=O)N[C@H](CO)C(=O)N[C@@H](Cc3ccccc3)C(=O)NCc3ccc(CC(=O)N[C@H](Cc4c[nH]cn4)C(=O)N[C@H](CCC(=O)O)C(=O)N[C@@H](CC(C)C)C(=O)NCc4ccc(CC(=O)N[C@H](Cc5ccccc5)C(=O)N[C@H](CCCCN)C(=O)N[C@@H](Cc5ccccc5)C(=O)NCc5ccc(CC(=O)N[C@@H](C(=O)N[C@H](CCC(=O)O)C(=O)N[C@@H](CC(C)C)C(=O)NCc6ccc(CC(N)=O)cc6)[C@H](C)O)cc5)cc4)cc3)cc2)C(C)C)cc1 [TNF-31-2] (5FAM-[dK][dV]L[X1][dA][dA]F[X1][dL][dK]L[X1][dF][dK]L[X1][dW][dR]V[X1][dS][dS]F[X1][dH][dE]L[X1][dF][dK]F[X1][dT][dE]L-{NHCH2C6H4(4-CH2CONH2)})
- Kd (TNFα): 23 nM

Structure (SMILES): CC(C)C[C@H](NC(=O)[C@@H](CCCNC(=N)N)NC(=O)[C@@H](Cc1c[nH]c2ccccc12)NC(=O)Cc1ccc(CNC(=O)[C@H](CC(C)C)NC(=O)[C@@H](CCCCN)NC(=O)[C@@H](CC(C)C)NC(=O)Cc2ccc(CNC(=O)[C@H](CC(C)C)NC(=O)[C@@H](CCCNC(=N)N)NC(=O)[C@@H](CC(C)C)NC(=O)Cc3ccc(CNC(=O)[C@H](Cc4ccccc4)NC(=O)[C@@H](CC(C)C)NC(=O)[C@H](NC(=O)c4ccc5c(c4)C(=O)OC54c5ccc(O)cc5Oc5cc(O)ccc54)[C@H](C)O)cc3)cc2)cc1)C(=O)NCc1ccc(CC(=O)N[C@H](C)C(=O)N[C@H](CCCCN)C(=O)N[C@@H](Cc2ccccc2)C(=O)NCc2ccc(CC(=O)N[C@H](CCC(=O)O)C(=O)N[C@H](CO)C(=O)N[C@H](C(=O)NCc3ccc(CC(=O)N4CCC[C@@H]4C(=O)N[C@@H](C(=O)NCC(=O)NCc4ccc(CC(=O)N[C@H](CCC(=O)O)C(=O)N[C@H](Cc5ccc(O)cc5)C(=O)N[C@@H](Cc5ccccc5)C(=O)NCc5ccc(CC(=O)N[C@H](Cc6ccc(O)cc6)C(=O)N[C@H](CCCNC(=N)N)C(=O)N[C@@H](Cc6ccccc6)C(=O)NCc6ccc(CC(N)=O)cc6)cc5)cc4)C(C)C)cc3)C(C)C)cc2)cc1 [TNF-31-4] (5FAM-[dT][dL]F[X1][dL][dR]L[X1][dL][dK]L[X1][dW][dR]L[X1][dA][dK]F[X1][dE][dS]V[X1][dP][dV]G[X1][dE][dY]F[X1][dY][dR]F-{NHCH2C6H4(4-CH2CONH2)})
- Kd (TNFα): 33 nM

Structure (SMILES): CC(C)C[C@H](NC(=O)[C@@H](CCCNC(=N)N)NC(=O)CNC(=O)Cc1ccc(CNC(=O)[C@H](CC(C)C)NC(=O)[C@H](NC(=O)[C@@H](CCCCN)NC(=O)c2ccc3c(c2)C(=O)OC32c3ccc(O)cc3Oc3cc(O)ccc32)C(C)C)cc1)C(=O)NCc1ccc(CC(=O)N[C@H](Cc2ccccc2)C(=O)N[C@H](CCC(=O)O)C(=O)N[C@H](C(=O)NCc2ccc(CC(=O)N3CCC[C@@H]3C(=O)N[C@H](CCCNC(=N)N)C(=O)N[C@H](C(=O)NCc3ccc(CC(=O)N[C@H](C)C(=O)N[C@H](CCCCN)C(=O)N[C@@H](Cc4ccccc4)C(=O)NCc4ccc(CC(=O)N[C@H](CCC(=O)O)C(=O)N[C@H](CO)C(=O)N[C@H](C(=O)NCc5ccc(CC(=O)N6CCC[C@@H]6C(=O)N[C@@H](C(=O)NCC(=O)NCc6ccc(CC(=O)N[C@@H](C(=O)N[C@H](Cc7c[nH]cn7)C(=O)N[C@@H](CC(C)C)C(=O)NCc7ccc(CC(=O)N[C@H](Cc8ccc(O)cc8)C(=O)N[C@H](CCCNC(=N)N)C(=O)N[C@@H](Cc8ccccc8)C(=O)NCc8ccc(CC(N)=O)cc8)cc7)[C@H](C)O)cc6)C(C)C)cc5)C(C)C)cc4)cc3)C(C)C)cc2)C(C)C)cc1 [TNF-31-5] (5FAM-[dK][dV]L[X1]G[dR]L[X1][dF][dE]V[X1][dP][dR]V[X1][dA][dK]F[X1][dE][dS]V[X1][dP][dV]G[X1][dT][dH]L[X1][dY][dR]F-{NHCH2C6H4(4-CH2CONH2)})
- Kd (TNFα): 24 nM
